Target: T1, Recombinant human HSD17B13 enzyme (Homo sapiens, UniProt Q7Z5P4)
T1 sequence (Q7Z5P4 20-300): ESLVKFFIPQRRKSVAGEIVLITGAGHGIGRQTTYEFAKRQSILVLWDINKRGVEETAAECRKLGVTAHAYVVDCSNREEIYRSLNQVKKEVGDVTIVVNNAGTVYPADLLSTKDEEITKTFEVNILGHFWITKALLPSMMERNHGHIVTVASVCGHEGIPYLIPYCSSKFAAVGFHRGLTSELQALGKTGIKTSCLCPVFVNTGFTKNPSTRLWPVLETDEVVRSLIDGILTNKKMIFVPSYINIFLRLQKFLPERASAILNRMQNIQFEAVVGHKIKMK
Assay: HSD17b13 NAD(P)H-Glo biochemical assay
Details: for IC50: 50 uM estradiol, 1 mM NAD+, NAD(P)H-Glo luminescence, read-out: HSD17β13 IC50; for inhibition at 10 µM: at 10 uM compound, read-out: HSD17β13 % inhibition at 10 uM
Protocol: Example B-1: HSD17b13 NAD(P)H-Glo Biochemical Assay
Recombinant human HSD17B13 enzyme. Substrate: estradiol (Sigma β-Estradiol E8875), 100 mM in DMSO. Cofactor: NAD+ Grade I free acid (Sigma 10127965001), 20 mM in H2O. Assay buffer final concentration: 20 mM Tris pH7.4 with 0.002% Tween-20 and 0.02% BSA. Assay performed in 384 well solid bottom plate (Corning 3570). Enzymatic activity detected by NAD(P)H-Glo™ Detection System (Promega G9062).
Inhibitor compounds were serially diluted in DMSO and then further diluted in assay buffer to a 10× concentration consisting of 1% DMSO.
HSD17b13 enzyme was diluted in 1× assay buffer to the desired enzyme concentration based on the specific activity of the enzyme lot. 20 uL of diluted enzyme was added to each well along with 2.5 uL of 10× inhibitor solution. Assay plate was incubated at RT for 20 minutes, and then 2.5 uL of a 10× substrate/cofactor mix was added to each well for a final concentration of 50 uM estradiol and 1 mM NAD+. Assay plate was incubated at 37° C. for 3 hours. NAD(P)H-Glo™ Detection System reagents were prepared according to manufacturer's specifications, and 25 uL was added to each well. After incubating for 1 hour at RT, luminescence was measured.

Structure (SMILES) | IC50 | inhibition at 10 µM
Cn1nc(-c2cc(O)c(F)c(C(F)(F)F)c2)c2ccc(N3CCN(S(C)(=O)=O)CC3)cc21 [Compound 9.26, 2-Fluoro-5-(1-methyl-6-(4-(methylsulfonyl)piperazin-1-yl)-1H-indazol-3-yl)-3-(trifluoromethyl)phenol] | 100 to 1000 nM | –
Cn1nc(-c2cc(C(F)(F)F)c(F)c(O)c2F)c2cnc(N3CCNC4(CC4)C3)nc21 [Compound 18.18, 2,6-Difluoro-3-(1-methyl-6-(4,7-diazaspiro[2.5]octan-7-y1)-1H-pyrazolo[3,4-d]pyrimidin-3-y1)-5-(trifluoromethyl)phenol] | < 100 nM | –
COCC1COCCN1c1cc2c(cn1)c(-c1cc(C(F)(F)F)c(F)c(O)c1F)nn2C (stereo not drawn) [Compound 9.60, 2,6-Difluoro-3-(6-(3-(methoxymethyl)morpholino)-1-methyl-1H-pyrazolo[4,3-c]pyridin-3-yl)-5-(trifluoromethyl)phenol] | < 100 nM | –
Cn1nc(-c2cc(C(F)(F)F)c(F)c(O)c2F)c2cnc(N3CCC(C(N)=O)CC34CC4)cc21 (stereo not drawn) [Compound 9.85, 4-(3-(2,4-Difluoro-3-hydroxy-5-(trifluoromethyl)phenyl)-1-methyl-1H-pyrazolo[4,3-c]pyridin-6-yl)-4-azaspiro[2.5]octane-7-carboxamide] | 100 to 1000 nM | –
CO[C@H]1C[C@@H](N(C)c2cc3c(cn2)c(-c2cc(C(F)(F)F)c(F)c(O)c2F)nn3C)C1 [Compound 9.36, 2,6-Difluoro-3-(6-((cis-3-methoxycyclobutyl)(methyl)amino)-1-methyl-1H-pyrazolo[4,3-c]pyridin-3-yl)-5-(trifluoromethyl)phenol] | < 100 nM | –
Cn1nc(-c2cc(C(F)(F)F)c(F)c(O)c2F)c2cnc(N3CCC4(CCNC4=O)CC3)nc21 [Compound 18.10, 8-(3-(2,4-Difluoro-3-hydroxy-5-(trifluoromethyl)phenyl)-1-methyl-1H-pyrazolo[3,4-d]pyrimidin-6-yl)-2,8-diazaspiro[4.5]decan-1-one] | < 100 nM | –
CS(=O)(=O)N1CCN(c2ccc3c(-c4cc(O)cc(C(F)(F)F)c4F)n[nH]c3c2)CC1 [Compound 9.22, 4-Fluoro-3-(6-(4-(methylsulfonyl)piperazin-1-yl)-1H-indazol-3-yl)-5-(trifluoromethyl)phenol] | – | 36%
CCN1CCN(c2ncc3c(-c4cc(C(F)(F)F)c(F)c(O)c4F)nn(C)c3n2)CC1=O [Compound 18.19, 4-(3-(2,4-Difluoro-3-hydroxy-5-(trifluoromethyl)phenyl)-1-methyl-1H-pyrazolo[3,4-d]pyrimidin-6-yl)-1-ethylpiperazin-2-one] | 100 to 1000 nM | –
CN1CCN(c2cc3c(cn2)c(-c2cc(C(F)(F)F)c(F)c(O)c2F)nn3C)C(C2CCOCC2)C1 (stereo not drawn) [Compound 9.128, 2,6-Difluoro-3-(1-methyl-6-(4-methyl-2-(tetrahydro-2H-pyran-4-yl)piperazin-1-yl)-1H-pyrazolo[4,3-c]pyridin-3-yl)-5-(trifluoromethyl)phenol] | < 100 nM | –
Cn1nc(-c2cc(C(F)(F)F)c(F)c(O)c2F)c2cnc(N3CCCC34COC4)cc21 [Compound 9.140, 2,6-Difluoro-3-(1-methyl-6-(2-oxa-5-azaspiro[3.4]octan-5-yl)-1H-pyrazolo[4,3-c]pyridin-3-yl)-5-(trifluoromethyl)phenol] | – | 35%
CS(=O)(=O)N1CCN(c2cc3oc(-c4cc(O)c(F)c(C(F)(F)F)c4)nc3cn2)CC1 [Compound 6.01, 2-Fluoro-5-(6-(4-(methylsulfonyl)piperazin-1-yl)oxazolo[4,5-c]pyridin-2-yl)-3-(trifluoromethyl)phenol] | 100 to 1000 nM | –
Oc1c(F)c(-c2nn(C3COC3)c3cc(N4CCOCC45CC5)ncc23)cc(C(F)(F)F)c1F [Compound 9.55, 2,6-Difluoro-3-(1-(oxetan-3-yl)-6-(7-oxa-4-azaspiro [2.5]octan-4-yl)-1H-pyrazolo[4,3-c]pyridin-3-yl)-5-(trifluoromethyl)phenol] | < 100 nM | –
CN(CC1CCOCC1)c1cc2c(cn1)c(-c1cc(C(F)(F)F)c(F)c(O)c1F)nn2C [Compound 9.64, 2,6-Difluoro-3-(1-methyl-6-(methyl((tetrahydro-2H-pyran-4-yl)methyl)amino)-1H-pyrazolo[4,3-c]pyridin-3-yl)-5-(trifluoromethyl)phenol] | < 100 nM | –
Cn1nc(-c2cc(C(F)(F)F)c(F)c(O)c2F)c2cnc(N3CC4(CCOCC4)C3)cc21 [Compound 9.10, 2,6-Difluoro-3-(1-methyl-6-(7-oxa-2-azaspiro[3.5]nonan-2-yl)-1H-pyrazolo[4,3-c]pyridin-3-yl)-5-(trifluoromethyl)phenol] | < 100 nM | –
Cn1nc(-c2cc(C(F)(F)F)c(F)c(O)c2F)c2cnc(N3CCOC4(CCOCC4)C3)cc21 [Compound 9.82, 2,6-Difluoro-3-(1-methyl-6-(1,9-dioxa-4-azaspiro [5.5]undecan-4-yl)-1H-pyrazolo[4,3-c]pyridin-3-yl)-5-(trifluoromethyl)phenol] | < 100 nM | –
CS(=O)(=O)N1CCN(c2ccc3c(-c4cc(O)c(F)c(C(F)(F)F)c4)n[nH]c3c2)CC1 [Compound 9.23, 2-Fluoro-5-(6-(4-(methylsulfonyl)piperazin-1-yl)-1H-indazol-3-yl)-3-(trifluoromethyl)phenol] | 100 to 1000 nM | –
Cn1nc(-c2cc(C(F)(F)F)c(F)c(O)c2F)c2ccc(NC3COC3)nc21 [Compound 9.139, 2,6-Difluoro-3-(1-methyl-6-(oxetan-3-ylamino)-1H-pyrazolo[3,4-b]pyridin-3-yl)-5-(trifluoromethyl)phenol] | – | 25%
C[C@@H]1CN(C(=O)Nc2ccccc2)CCN1c1cc2c(cn1)c(-c1cc(C(F)(F)F)c(F)c(O)c1F)nn2C [Compound 21, (R)-4-(3-(2,4-Difluoro-3-hydroxy-5-(trifluoromethyl)phenyl)-1-methyl-1H-pyrazolo[4,3-c]pyridin-6-yl)-3-methyl-N-phenylpiperazine-1-carboxamide] | < 100 nM | –
Cn1nc(-c2cc(C(F)(F)F)c(F)c(O)c2F)c2cnc(N3CCC34CCOCC4)nc21 [Compound 18.13, 2,6-Difluoro-3-(1-methy1-6-(7-oxa-1-azaspiro[3.5]nonan-1-y1)-1H-pyrazolo[3,4-d]pyrimidin-3-y1)-5-(trifluoromethyl)phenol] | < 100 nM | –
CS(=O)(=O)N1CCN(c2ccc3oc(-c4cc(O)cc(C(F)(F)F)c4)nc3c2)CC1 [Compound 4.02, 3-(5-(4-(Methylsulfonyl)piperazin-1-yl)benzo[d]oxazol-2-yl)-5-(trifluoromethyl)phenol] | 100 to 1000 nM | –
CNC(=O)C1CN(c2cc3c(cn2)c(-c2cc(C(F)(F)F)c(F)c(O)c2F)nn3C)CCO1 (stereo not drawn) [Compound 9.80, 4-(3-(2,4-Difluoro-3-hydroxy-5-(trifluoromethyl)phenyl)-1-methyl-1H-pyrazolo[4,3-c]pyridin-6-yl)-N-methylmorpholine-2-carboxamide] | < 100 nM | –
CN(C)C1CCCN(c2ncc3c(-c4cc(C(F)(F)F)c(F)c(O)c4F)nn(C)c3n2)C1 (stereo not drawn) [Compound 18.45, 3-(6-(3-(Dimethylamino)piperidin-1-y1)-1-methyl-1H-pyrazolo[3,4-d]pyrimidin-3-y1)-2,6-difluoro-5-(trifluoromethyl)phenol] | 100 to 1000 nM | –
CN1CCC2(CC1)CCN(c1ncc3c(-c4cc(C(F)(F)F)c(F)c(O)c4F)nn(C)c3n1)CC2 [Compound 18.47, 2,6-Difluoro-3-(1-methyl-6-(9-methyl-3,9-diazaspiro[5.5]undecan-3-y1)-1H-pyrazolo[3,4-d]pyrimidin-3-y1)-5-(trifluoromethyl)phenol] | < 100 nM | –
CN(c1ccc2c(-c3cc(C(F)(F)F)c(F)c(O)c3F)nn(C)c2n1)C1CCC1 [Compound 9.18, 3-(6-(Cyclobutyl(methyl)amino)-1-methyl-1H-pyrazolo[3,4-b]pyridin-3-yl)-2,6-difluoro-5-(trifluoromethyl)phenol] | < 100 nM | –
Cn1nc(-c2cc(C(F)(F)F)c(F)c(O)c2F)c2cnc(N3CC4(COC4)C3)cc21 [Compound 9.12, 2,6-Difluoro-3-(1-methyl-6-(2-oxa-6-azaspiro[3.3]heptan-6-yl)-1H-pyrazolo[4,3-c]pyridin-3-yl)-5-(trifluoromethyl)phenol] | < 100 nM | –
CC1COC2(CCC2)CN1c1cc2c(cn1)c(-c1cc(C(F)(F)F)c(F)c(O)c1F)nn2C (stereo not drawn) [Compound 9.95, 2,6-Difluoro-3-(1-methyl-6-(7-methyl-5-oxa-8-azaspiro[3.5]nonan-8-yl)-1H-pyrazolo[4,3-c]pyridin-3-yl)-5-(trifluoromethyl)phenol] | < 100 nM | –
CS(=O)(=O)N1CCN(c2cc3[nH]nc(-c4cc(O)c(F)c(C(F)(F)F)c4)c3cc2F)CC1 [Compound 9.24, 2-Fluoro-5-(5-fluoro-6-(4-(methylsulfonyl)piperazin-1-yl)-1H-indazol-3-yl)-3-(trifluoromethyl)phenol] | 100 to 1000 nM | –

Reference: patent US20240083861A1, “HSD17B13 INHIBITORS AND USES THEREOF” (FL2022-001, Inc., priority 2020, published 2024)
